Consider 38 substances from US20230263822A1, “MODULATION OF FACTOR 11 EXPRESSION” (Ionis Pharmaceuticals, Inc., priority 2008, published 2023).

Strand notation (5' to 3'): a small letter for the sugar, then the base; units joined by * are phosphorothioate-linked, units joined directly phosphodiester-linked; [ ] holds rarer units or linkages, { } end groups; capitals alone tell only the bases. e = 2'-O-(2-methoxyethyl) (MOE); [5mC] = 5-methylcytosine; d = 2'-deoxy (DNA)

The first series has as its system human Factor 11 mRNA. Nature of the series: Antisense inhibition of human Factor 11 in HepG2 cells by microwalk gapmers, lipofectin, 75 nM (Example 3). It is filed as cell-based. The following applies: HepG2, lipofectin, ~24 h, gapmers targeted to nucleobases 656 to 704 of SEQ ID NO: 1. Here is the method:
These gapmers were designed by creating gapmers shifted slightly upstream and downstream (i.e. “microwalk”) of the original gapmers from Table 3. Gapmers were also created with various motifs, e.g. 5-10-5 MOE, 3-14-3 MOE, and 2-13-5 MOE. These gapmers were tested in vitro. Cultured HepG2 cells at a density of 10,000 cells per well were transfected using lipofectin reagent with 75 nM antisense oligonucleotide. After a treatment period of approximately 24 hours, RNA was isolated from the cells and Factor 11 mRNA levels were measured by quantitative real-time PCR. Factor 11 mRNA levels were adjusted according to total RNA content, as measured by RIBOGREEN. Results are presented as percent inhibition of Factor 11, relative to untreated control cells.
The chimeric antisense oligonucleotides in Table 4 were designed as 5-10-5 MOE, 3-14-3 MOE, and 2-13-5 MOE gapmers. The first listed gapmers in Table 4 are the original gapmers (see Table 3) from which the remaining gapmers were designed via microwalk and are designated by an asterisk. The 5-10-5 gapmers are 20 nucleotides in length, wherein the central gap segment is comprised of 10 2′-deoxynucleotides and is flanked on both sides (in the 5′ and 3′ directions) by wings comprising 5 nucleotides each. The 3-14-3 gapmers are 20 nucleotides in length, wherein the central gap segment is comprised of 14 2′-deoxynucleotides and is flanked on both sides (in the 5′ and 3′ directions) by wings comprising 3 nucleotides each. The 2-13-5 gapmers are 20 nucleotides in length, wherein the central gap segment is comprised of 13 2′-deoxynucleotides. The central gap is flanked on the 5′ end with a wing comprising 2 nucleotides and on the 3′ end with a wing comprising 5 nucleotides. For each of the motifs (5-10-5, 3-14-3, and 2-13-5), each nucleotide in the 5′ wing segment and each nucleotide in the 3′ wing segment has a 2′-MOE modification. The internucleoside linkages throughout each gapmer are phosphorothioate (P=S) linkages. All cytidine residues throughout each gapmer are 5-methyl cytidines. “Target start site” indicates the 5′-most nucleotide to which the gapmer is targeted. “Target stop site” indicates the 3′-most nucleotide to which the gapmer is targeted. Each gapmer listed in Table 4 is targeted to SEQ ID NO: 1 (GENBANK Accession No. NM_000128.3).
As usually defined, the % inhibition is the change of the read-out against control, counted positive when it falls. Read a low % inhibition as little suppression. On to “416809 (antisense e[5mC]*eA*eT*eA*eA*dA*dT*dG*dT*d[5mC]*dT*dT*dT*dG*dT*eT*eG*e[5mC]*eA*eA) [compound 416809]”, for which the “% inhibition” value turned out to be 86%.

As for “416815 (antisense eT*eA*eG*eG*eT*d[5mC]*d[5mC]*dA*d[5mC]*dA*dT*dA*dA*dA*dT*eG*eT*e[5mC]*eT*eT) [compound 416815]”, the “% inhibition” value is reported as 63%.

Consider “416947 (antisense eT*eA*dA*dA*dT*dG*dT*d[5mC]*dT*dT*dT*dG*dT*dT*dG*e[5mC]*eA*eA*eG*e[5mC]) [compound 416947]”, for which the “% inhibition” value is 62%.

As to “416813 (antisense eG*eT*e[5mC]*e[5mC]*eA*d[5mC]*dA*dT*dA*dA*dA*dT*dG*dT*d[5mC]*eT*eT*eT*eG*eT) [compound 416813]”, the “% inhibition” value turned out to be 70%.

As for “416958 (antisense e[5mC]*eT*dA*dG*dG*dT*d[5mC]*d[5mC]*dA*d[5mC]*dA*dT*dA*dA*dA*eT*eG*eT*e[5mC]*eT) [compound 416958]”, the “% inhibition” value is reported as 43%.

For the substance “416882 (antisense eT*e[5mC]*eT*dA*dG*dG*dT*d[5mC]*d[5mC]*dA*d[5mC]*dA*dT*dA*dA*dA*dT*eG*eT*e[5mC]) [compound 416882]”, the “% inhibition” value stood at 60%.

For the substance “416894 (antisense eA*eT*eG*d[5mC]*d[5mC]*d[5mC]*dT*dT*d[5mC]*dA*dT*dG*dT*d[5mC]*dT*dA*dG*eG*eT*e[5mC]) [compound 416894]”, the “% inhibition” value was 85%.

On to “416963 (antisense e[5mC]*eA*dT*dG*dT*d[5mC]*dT*dA*dG*dG*dT*d[5mC]*d[5mC]*dA*d[5mC]*eA*eT*eA*eA*eA) [compound 416963]”, for which the “% inhibition” value is 48%.

“416829 (antisense eT*eT*eT*eA*eT*dG*d[5mC]*d[5mC]*d[5mC]*dT*dT*d[5mC]*dA*dT*dG*eT*e[5mC]*eT*eA*eG) [compound 416829]”: the “% inhibition” value is 72%.

For the substance “416816 (antisense e[5mC]*eT*eA*eG*eG*dT*d[5mC]*d[5mC]*dA*d[5mC]*dA*dT*dA*dA*dA*eT*eG*eT*e[5mC]*eT) [compound 416816]”, the “% inhibition” value stood at 79%.

Take “416897 (antisense eT*eT*eT*dA*dT*dG*d[5mC]*d[5mC]*d[5mC]*dT*dT*d[5mC]*dA*dT*dG*dT*d[5mC]*eT*eA*eG) [compound 416897]”: the “% inhibition” value came to 66%.

As for “416957 (antisense eT*eA*dG*dG*dT*d[5mC]*d[5mC]*dA*d[5mC]*dA*dT*dA*dA*dA*dT*eG*eT*e[5mC]*eT*eT) [compound 416957]”, the “% inhibition” value was determined as 59%.

Consider “416810 (antisense e[5mC]*eA*e[5mC]*eA*eT*dA*dA*dA*dT*dG*dT*d[5mC]*dT*dT*dT*eG*eT*eT*eG*e[5mC]) [compound 416810]”, for which the “% inhibition” value worked out at 68%.

On to “416974 (antisense eT*eT*dT*dA*dT*dG*d[5mC]*d[5mC]*d[5mC]*dT*dT*d[5mC]*dA*dT*dG*eT*e[5mC]*eT*eA*eG) [compound 416974]”, for which the “% inhibition” value is given as 73%.

With “416871 (antisense eA*eT*eA*dA*dA*dT*dG*dT*d[5mC]*dT*dT*dT*dG*dT*dT*dG*d[5mC]*eA*eA*eG) [compound 416871]”, the “% inhibition” value was found to be 28%.

“416822 (antisense e[5mC]*eT*eT*e[5mC]*eA*dT*dG*dT*d[5mC]*dT*dA*dG*dG*dT*d[5mC]*e[5mC]*eA*e[5mC]*eA*eT) [compound 416822]”: the “% inhibition” value came out at 76%.

Turning to “416971 (antisense eA*eT*dG*d[5mC]*d[5mC]*d[5mC]*dT*dT*d[5mC]*dA*dT*dG*dT*d[5mC]*dT*eA*eG*eG*eT*e[5mC]) [compound 416971]”, the “% inhibition” value is on record as 83%.

Turning to “416890 (antisense e[5mC]*e[5mC]*eT*dT*d[5mC]*dA*dT*dG*dT*d[5mC]*dT*dA*dG*dG*dT*d[5mC]*d[5mC]*eA*e[5mC]*eA) [compound 416890]”, the “% inhibition” value is 87%.

“416967 (antisense e[5mC]*e[5mC]*dT*dT*d[5mC]*dA*dT*dG*dT*d[5mC]*dT*dA*dG*dG*dT*e[5mC]*e[5mC]*eA*e[5mC]*eA) [compound 416967]”: the “% inhibition” value was 75%.

The same series, now with this note: HepG2 cells, lipofectin, gapmers targeted to nucleobases 738 to 762 of SEQ ID NO: 1.
As to “416975 (antisense e[5mC]*e[5mC]*dG*dT*dG*d[5mC]*dA*dT*d[5mC]*dT*dT*dT*d[5mC]*dT*dT*eG*eG*e[5mC]*eA*eT) [compound 416975]”, the “% inhibition” value was found to be 87%.

“416903 (antisense eG*eT*e[5mC]*dA*dT*d[5mC]*d[5mC]*dG*dT*dG*d[5mC]*dA*dT*d[5mC]*dT*dT*dT*e[5mC]*eT*eT) [compound 416903]”: the “% inhibition” value is 88%.

As to “416976 (antisense eT*e[5mC]*d[5mC]*dG*dT*dG*d[5mC]*dA*dT*d[5mC]*dT*dT*dT*d[5mC]*dT*eT*eG*eG*e[5mC]*eA) [compound 416976]”, the “% inhibition” value amounted to 83%.

Regarding “416899 (antisense eT*e[5mC]*e[5mC]*dG*dT*dG*d[5mC]*dA*dT*d[5mC]*dT*dT*dT*d[5mC]*dT*dT*dG*eG*e[5mC]*eA) [compound 416899]”, the “% inhibition” value came to 86%.

On to “416902 (antisense eT*e[5mC]*eA*dT*d[5mC]*d[5mC]*dG*dT*dG*d[5mC]*dA*dT*d[5mC]*dT*dT*dT*d[5mC]*eT*eT*eG) [compound 416902]”, for which the “% inhibition” value is on record as 46%.

Turning to “416833 (antisense eT*e[5mC]*eA*eT*e[5mC]*d[5mC]*dG*dT*dG*d[5mC]*dA*dT*d[5mC]*dT*dT*eT*e[5mC]*eT*eT*eG) [compound 416833]”, the “% inhibition” value is recorded as 65%.

The series is the same for the next values; noted with them: HepG2 cells, lipofectin, gapmers targeted to nucleobases 1018 to 1042 of SEQ ID NO: 1.
As for “416905 (antisense eA*e[5mC]*e[5mC]*dG*dG*dG*dA*dT*dG*dA*dT*dG*dA*dG*dT*dG*d[5mC]*eA*eG*eA) [compound 416905]”, the “% inhibition” value is recorded as 85%.

Still in this series, the particulars now being: HepG2 cells, lipofectin, gapmers targeted to nucleobases 1062 to 1091 of SEQ ID NO: 1.
With “416843 (antisense eT*eT*eT*eG*eA*dG*dA*dT*dT*d[5mC]*dT*dT*dT*dG*dG*eG*e[5mC]*e[5mC]*eA*eT) [compound 416843]”, the “% inhibition” value was determined as 89%.

For “416992 (antisense eT*eT*dT*dG*dA*dG*dA*dT*dT*d[5mC]*dT*dT*dT*dG*dG*eG*e[5mC]*e[5mC]*eA*eT) [compound 416992]”, the “% inhibition” value is given as 84%.

In the case of “416910 (antisense eG*eA*eT*dT*d[5mC]*dT*dT*dT*dG*dG*dG*d[5mC]*d[5mC]*dA*dT*dT*d[5mC]*e[5mC]*eT*eG) [compound 416910]”, the “% inhibition” value is 90%.

For the substance “416990 (antisense eT*eG*dA*dG*dA*dT*dT*d[5mC]*dT*dT*dT*dG*dG*dG*d[5mC]*e[5mC]*eA*eT*eT*e[5mC]) [compound 416990]”, the “% inhibition” value is on record as 76%.

“416844 (antisense e[5mC]*eT*eT*eT*eG*dA*dG*dA*dT*dT*d[5mC]*dT*dT*dT*dG*eG*eG*e[5mC]*e[5mC]*eA) [compound 416844]”: the “% inhibition” value stood at 90%.

With “416986 (antisense eA*eT*dT*d[5mC]*dT*dT*dT*dG*dG*dG*d[5mC]*d[5mC]*dA*dT*dT*e[5mC]*e[5mC]*eT*eG*eG) [compound 416986]”, the “% inhibition” value was found to be 88%.

“416840 (antisense eA*eG*eA*eT*eT*d[5mC]*dT*dT*dT*dG*dG*dG*d[5mC]*d[5mC]*dA*eT*eT*e[5mC]*e[5mC]*eT) [compound 416840]”: the “% inhibition” value is recorded as 85%.

With “416845 (antisense eT*e[5mC]*eT*eT*eT*dG*dA*dG*dA*dT*dT*d[5mC]*dT*dT*dT*eG*eG*eG*e[5mC]*e[5mC]) [compound 416845]”, the “% inhibition” value worked out at 86%.

Still in this series, the particulars now being: HepG2 cells, lipofectin, gapmers targeted to nucleobases 1275 to 1318 of SEQ ID NO: 1.
Turning to “416937 (antisense eG*e[5mC]*eG*dG*dA*d[5mC]*dG*dG*d[5mC]*dA*dT*dT*dG*dG*dT*dG*d[5mC]*eA*e[5mC]*eA) [compound 416937]”, the “% inhibition” value was 93%.

Take “416939 (antisense e[5mC]*eA*eG*d[5mC]*dG*dG*dA*d[5mC]*dG*dG*d[5mC]*dA*dT*dT*dG*dG*dT*eG*e[5mC]*eA) [compound 416939]”: the “% inhibition” value is reported as 88%.

In the case of “416997 (antisense eA*e[5mC]*dA*dG*dT*dT*dT*d[5mC]*dT*dG*dG*d[5mC]*dA*dG*dG*e[5mC]*e[5mC]*eT*e[5mC]*eG) [compound 416997]”, the “% inhibition” value is given as 84%.

Turning to “417008 (antisense eG*eG*d[5mC]*dA*dT*dT*dG*dG*dT*dG*d[5mC]*dA*d[5mC]*dA*dG*eT*eT*eT*e[5mC]*eT) [compound 417008]”, the “% inhibition” value is 82%.
